What was measured:
DcpS [1] = biological target: T1, DcpS (Homo sapiens, UniProt Q96C86); experiment: FA screening of in-house library, 2i:DcpS system; type: binding; settings: 1 nM 2i, 25 nM DcpS, 1.5 µM inhibitor
T1 construct: His tag; made in house; host or cells: E. coli BL21(DE3) RIL
T1 sequence (Q96C86 1-337): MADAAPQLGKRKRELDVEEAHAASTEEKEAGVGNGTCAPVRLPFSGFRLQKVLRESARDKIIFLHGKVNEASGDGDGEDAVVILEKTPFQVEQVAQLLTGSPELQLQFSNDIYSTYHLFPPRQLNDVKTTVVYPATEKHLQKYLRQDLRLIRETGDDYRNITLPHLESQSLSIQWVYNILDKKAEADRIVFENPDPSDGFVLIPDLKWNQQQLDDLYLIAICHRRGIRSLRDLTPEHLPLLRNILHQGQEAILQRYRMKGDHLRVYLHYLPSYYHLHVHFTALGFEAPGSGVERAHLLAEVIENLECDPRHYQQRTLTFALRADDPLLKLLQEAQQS
Method: The Z’ factor was determined under conditions optimized for the competition assay. The Z’ value exceeded 0.8 for incubation times up to 1 h, making the assay suitable for screening experiments (Table 5). A screening experiment was then performed using the same compound library as that used for eIF4E screening. The results highlighted the impact of the triphosphate bridge modification on the affinity for the protein. […] The FA method also enabled the identification of unstable compounds, e.g., hydrozylable ligands for which determination of affinity is problematic (as observed by FA signal changes during the experiment; Fig. 7).
To evaluate the quality of the assay, the Z’ factor was determined for several protein-probe combinations. The assay was performed on 96-well microplates, where half of the samples were negative controls and the other half were positive controls.
For the screening experiments a small in-house library containing 21 ligands was used. Experiments were conducted in the same manner as Z’ factor determination, with exception that the ligand concentration was modified (eIF4E screening conditions: 1 nM 1e, 100 nM eIF4E, 750 nM ligand, DcpS screening conditions: 1 nM 2i, 25 nM DcpS, 1.5 µM ligand). For eIF4E screening experiment, the 1e:eIF4E system was used, for DcpS screening 2i:DcpS system was used.

eIF4E = biological target: T2, eIF4E (Mus musculus, UniProt P63073); experiment: FA competition (probe-displacement) assay for eIF4E; type: binding, Murine; settings: for EC50: HEPES pH 7.2
T2 construct: Murine eIF4E (residues 28–217) was expressed in E. coli; made in house; host or cells: E. coli
Method: Inclusion bodies containing eIF4E were solubilized in 50 mM HEPES/KOH (pH 7.2) buffer containing 10% glycerol, 6 M guanidine hydrochloride and 2 mM DTT. Protein was then refolded during a two-step dialysis against buffer with decreasing concentration of guanidine hydrochloride in the presence of 100 mM KCl. Subsequently eIF4E was loaded on ion exchange HiTrap SP HP column (GE Healthcare), eluted with linear gradient of 0.1–1 M KCl and finally desalted and polished during a gel filtration purification step on HiLoad 16/600 Superdex 75 pg (GE Healthcare) using 50 mM HEPES pH 7.2, 100 mM KCl, 0.5 mM EDTA, 2 mM DTT buffer. eIF4E was aliquoted and stored in the presence of 10% glycerol at −80 °C. Before each experiment the protein was centrifuged on Ultrafree-MC Centrifugal PVDF filter with […] pore size (Millipore), at 4 °C and 3000×g for 2 min to remove any possible aggregates.
(§1) Experiments were carried out at 25 °C in 96-well non-binding microplates with sample volume of 200 µl per well. Two different buffers were used depending on protein used in the assay:
eIF4E assay buffer—50 mM HEPES (pH 7.2), 100 mM KCl, 0.5 mM EDTA, 1 mM DTT.
(§2) For competitive binding assay, a mixture containing the probe and the protein was incubated with the tested ligand.
(§3) In competitive measurements, a constant concentration of the protein and fluorescent probe and increasing concentration of the test ligand were used. At least 12 point dilutions of the tested compound were used. The experiments were carried out in 96-well plates. Each sample contained a mixture consisting of the probe, tested ligand and buffer (same as for the direct binding assay). The samples were incubated for 10 min at 25 °C with simultaneous shaking, then the protein was added to each well, incubated for additional 3 min, followed by the measurement of fluorescence anisotropy. FA signals were recorded for 20 min with 2 min intervals.

DcpS [2] = system: DcpS; parameters: method as in PMID 27031609; settings: DcpS inhibition, FR assay; cited from earlier work
DcpS [3] = biological target: T1, DcpS; experiment: FA competition assay for DcpS; type: binding
Method: Expression of recombinant His-tagged human DcpS was performed in BL21(DE3) RIL strain and induced overnight at 18 °C using 0.5 mM IPTG as described previously. Cells were harvested, resuspended in buffer (50 mM Tris pH 7.6, 500 mM NaCl, 20 mM imidazole) with lysozyme (0.1 mg/ml) and protease inhibitors (1 mM PMSF, 1 µM pepstatin A, 0.3 µM aprotinin) and then lysed using sonication. Lysate was clarified by centrifugation at 35 000 × g for 40 min at 4 °C. […] The enzyme hDcpS was purified to homogeneity on HiLoad 16/600 Superdex 200 pg (GE Healthcare) gel filtration column using 50 mM Tris·HCl pH 7.6, 200 mM NaCl, 2 mM DTT buffer. Protein was aliquoted and stored in the presence of 10% glycerol at -80 °C.
as §1
DcpS assay buffer—50 mM Tris–HCl (pH 7.6), 200 mM KCl, 0.5 mM EDTA, 1 mM DTT.
as §2, §3

4G peptide = 4G peptide (UniProt Q04637); experiment: fluorescence anisotropy; settings: cited from earlier work
[4] = Probe 1a: 10 nM probe 1a and 100 nM eIF4E
[5] = Probe 1b: 1 nM probe 1b and 15 nM eIF4E
[6] = Probe 1e: footnote c, 1 nM probe 1c and 100 nM eIF4E
[7] = 1f:DcpS system, 1f and 100 nM DcpS
[8] = 2g:DcpS system, 2 nM 2g and 25 nM DcpS
[9] = 2i:DcpS system, 1 nM 2i and 25 nM DcpS
[10] = 2h:DcpS system, 2 nM 2h and 25 nM DcpS

T2 sequence (P63073 28-217): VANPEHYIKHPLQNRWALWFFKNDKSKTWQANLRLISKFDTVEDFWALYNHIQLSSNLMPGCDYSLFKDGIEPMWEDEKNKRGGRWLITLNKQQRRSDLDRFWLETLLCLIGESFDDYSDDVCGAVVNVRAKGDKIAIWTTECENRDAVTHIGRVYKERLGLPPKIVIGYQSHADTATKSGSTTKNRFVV
Sequence of eIF4E (from UniProt P06730) (P06730 2-217): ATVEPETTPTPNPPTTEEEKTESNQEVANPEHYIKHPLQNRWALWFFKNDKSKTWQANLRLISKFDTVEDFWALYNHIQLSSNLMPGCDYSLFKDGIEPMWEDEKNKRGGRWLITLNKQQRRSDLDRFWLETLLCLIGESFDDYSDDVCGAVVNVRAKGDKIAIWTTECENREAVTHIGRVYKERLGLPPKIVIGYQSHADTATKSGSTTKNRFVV

[BH3-]P(=O)(OP(=O)(O)OCC1OC(n2cnc3c(=O)[nH]c(N)nc32)C(O)C1O)OP(=O)(O)OCC1OC(n2c[n+](C)c3c(=O)[nH]c(N)nc32)C(O)C1O (stereo not shown) [m^7GppBH3pG D2]
stability towards DcpS (FA signal changes during the screening experiment) (DcpS [1]): slowly hydrolyzed DcpS substrates

C[n+]1cn([C@@H]2O[C@H](COP(=O)(O)CP(=O)(O)OP(=O)([O-])OP(=O)(O)OC[C@H]3O[C@@H](n4cnc5c(=O)[nH]c(N)nc54)[C@H](O)[C@@H]3O)[C@@H](O)[C@H]2O)c2nc(N)nc(O)c21 [m^7GpCH2pppG]
inhibitory potency in DcpS screening (DcpS [1]): strong DcpS inhibitors

m^7GSppSpG D1
inhibitory potency in DcpS screening (DcpS [1]): the most potent inhibitors

CO[C@@H]1[C@H](O)[C@@H](COP([O-])(=S)OP(=O)(O)OP(=O)(O)OP(=O)(O)OC[C@H]2O[C@@H](n3cnc4c(=O)[nH]c(N)nc43)[C@H](O)[C@@H]2O)O[C@H]1n1c[n+](C)c2c(=O)[nH]c(N)nc21 (single isomer, unassigned) [m^7′-OGpSpppG D1, m^7,2′-OGpSpppG D1]
Hill slope (eIF4E; [4]): 2.07 ± 0.02
EC50 (eIF4E; [4]): 68 ± 3 nM
Hill slope (eIF4E; [5]): 1.64 ± 0.10
EC50 (eIF4E; [5]): 22.2 ± 3.7 nM
Hill slope (eIF4E; [6]): 1.46 ± 0.60
EC50 (eIF4E; [6]): 51.4 ± 6.1 nM

Cn1c[n+]([C@@H]2O[C@H](COP(=O)(O)O)[C@@H](O)[C@H]2O)c2nc(N)[nH]c(=O)c21 [m^7GMP]
IC50 (DcpS [2]): 97000 ± 21000 nM
EC50 (DcpS [3]; [7]): 104 ± 11 nM
Hill slope (DcpS [3]; [7]): 1.19 ± 0.15
EC50 (DcpS [3]; [8]): 112 ± 11 nM
Hill slope (DcpS [3]; [8]): 1.04 ± 0.02
EC50 (DcpS [3]; [9]): 255 ± 14 nM
Hill slope (DcpS [3]; [9]): 1.00 ± 0.02
EC50 (DcpS [3]; [10]): 357 ± 44 nM
Hill slope (DcpS [3]; [10]): 0.93 ± 0.07

Cn1c[n+]([C@@H]2O[C@H](COP(=O)(O)OP(=O)([O-])O)[C@@H](O)[C@H]2O)c2nc(N)[nH]c(=O)c21 [m^7GDP]
IC50 (DcpS [2]): 5200 ± 1200 nM
Hill slope (eIF4E; [4]): 1.36 ± 0.03
EC50 (eIF4E; [4]): 204 ± 5.5 nM
Hill slope (eIF4E; [5]): 1.16 ± 0.04
EC50 (eIF4E; [5]): 212 ± 30 nM
Hill slope (eIF4E; [6]): 1.08 ± 0.07
EC50 (eIF4E; [6]): 216 ± 11 nM
EC50 (DcpS [3]; [7]): 36.5 ± 3.6 nM
Hill slope (DcpS [3]; [7]): 1.98 ± 0.18
EC50 (DcpS [3]; [8]): 16.4 ± 0.2 nM
Hill slope (DcpS [3]; [8]): 1.55 ± 0.09
EC50 (DcpS [3]; [9]): 36.2 ± 4.7 nM
Hill slope (DcpS [3]; [9]): 1.42 ± 0.06
EC50 (DcpS [3]; [10]): 31.2 ± 10.7 nM
Hill slope (DcpS [3]; [10]): 1.06 ± 0.37

[BH3-]P(=O)(OP(=O)(O)OCC1OC(n2cnc3c(=O)[nH]c(N)nc32)C(O)C1O)OP(=O)(O)OCC1OC(n2c[n+](C)c3c(=O)[nH]c(N)nc32)C(O)C1O (stereo not shown) [m^7GppBH3pG D1]
stability towards DcpS (FA signal changes during the screening experiment) (DcpS [1]): slowly hydrolyzed DcpS substrates

m^7GSppSpG D2
inhibitory potency in DcpS screening (DcpS [1]): the most potent inhibitors

eIF4E (from UniProt P06730)
Kd (4G peptide): 25000 nM

— article PMC8032668, “Evaluation of carboxyfluorescein-labeled 7-methylguanine nucleotides as probes for studying cap-binding proteins by fluorescence anisotropy” (Scientific Reports, 2021)
